Assay results as given in US20150038418A1, “NATRIURETIC PEPTIDE COMPOSITIONS AND METHODS OF PREPARATION” (MEDTRONIC, INC., priority 2011, published 2015).

Tested on: Prostaglandin E2 (PGE2)
Assay: Serum Prostaglandin E2 after 6 weeks subcutaneous infusion of VD in Dahl/SS rats
Assay type: in vivo, rat
Details: 4% salt diet
Text: The pharmacodynamic effects of VD were investigated in a rat model. Forty male Dahl/SS rats were shipped to the animal facilities at PhysioGenix, Inc. (Milwaukee, Wis.). The rats were maintained on a low-salt diet and allowed to acclimate. After acclimation, animals had baseline parameters collected while on the low-salt diet. Animals were then randomly assigned to one of 4 groups (10 animals per group):
1. Vehicle Control; low-salt diet, n=10 2. Vehicle Control; 4% salt diet, n=10 3. Vessel dilator, 100 ng/kg/min infusion of VD, 4% salt diet, n=10 4. Vessel dilator, 300 ng/kg/min infusion of VD, 4% salt diet, n=10
Lyophilized VD peptide (Bachem) was reconstituted in a Tris buffer having the same composition as the Tris buffer of Example 1. The vehicle control groups were infused with a citrate-mannitol-saline buffer (0.66 mg/mL citric acid, 6.43 mg/mL sodium citrate, 40 mg/mL mannitol, 9 mg/mL NaCl). The animals were on a Teklad 7034 (low-salt) diet or Dyets AIN-76A 4% salt diet, as indicated, throughout a 6 week course of the study and had free access to water. […]
Alzet® minipumps (Durect, Corp.) were surgically implanted on Days 1, 15, and 29 of the study to maintain continuous vehicle or drug dispensing at the desired dose for a total period of 6 weeks. At the end of 6 weeks, the serum content of Prostaglandin E2 (PGE2) was measured.

## VD: Vessel Dilator, ANP prohormone a.a. 31-67, EVVPPQVLSEPNEEAGAALSPLPEVPPWTGEVSPAQR (SEQ ID No. 4) (listed as Homo sapiens)
SQ infusion 100 ng/kg·min
  PGE2 concentration in serum versus control groups: similar
SQ infusion 300 ng/kg·min, p<0.05
  PGE2 concentration in serum versus control groups: significantly higher than for any of the other 3 groups
